Experimental data taken from PubChem BioAssay (NCI).
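How tested: cells in 96-well plates exposed to compound for 48 hours at five concentrations. At the GI50, growth is halved. TGI is the concentration that stops growth completely.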

Experiments:
Experiment in all cases: NCI tumour cell line growth inhibition, 48 h
SK-OV-3 ovarian = system: SK-OV-3 ovarian
NCI-H23 lung = system: NCI-H23 lung
MDA-MB-231 breast = system: MDA-MB-231 breast
RPMI-8226 leukemia = system: RPMI-8226 leukemia
MOLT-4 leukemia = system: MOLT-4 leukemia
DU-145 prostate = system: DU-145 prostate
PC-3 prostate = system: PC-3 prostate
NCI/ADR-RES ovarian = system: NCI/ADR-RES ovarian
HS 578T breast = system: HS 578T breast
HCC-2998 colon = system: HCC-2998 colon

| SMILES | GI50 (SK-OV-3 ovarian) [µM] | TGI (SK-OV-3 ovarian) [µM] | GI50 (NCI-H23 lung) [µM] | TGI (NCI-H23 lung) [µM] | GI50 (MDA-MB-231 breast) [µM] | TGI (MDA-MB-231 breast) [µM] | GI50 (RPMI-8226 leukemia) [µM] | TGI (RPMI-8226 leukemia) [µM] | GI50 (MOLT-4 leukemia) [µM] | TGI (MOLT-4 leukemia) [µM] | GI50 (DU-145 prostate) [µM] | TGI (DU-145 prostate) [µM] | GI50 (PC-3 prostate) [µM] | TGI (PC-3 prostate) [µM] | GI50 (NCI/ADR-RES ovarian) [µM] | TGI (NCI/ADR-RES ovarian) [µM] | GI50 (HS 578T breast) [µM] | TGI (HS 578T breast) [µM] | GI50 (HCC-2998 colon) [µM] | TGI (HCC-2998 colon) [µM] |
| --- | --- | --- | --- | --- | --- | --- | --- | --- | --- | --- | --- | --- | --- | --- | --- | --- | --- | --- | --- | --- |
| NCC(=O)Nc1ccc(-n2nc(C(F)(F)F)cc2-c2ccc3c(ccc4ccccc43)c2)cc1 | 1.27 | 2.54 | 1.78 | 3.75 | 1.35 | 2.87 | 1.29 | 4.08 | 0.809 | 4.01 | 1.32 | 2.62 | 1.24 | 2.66 | 1.12 | 3.12 | – | – | – | – |
| C[CH2][Sn]1([CH2]C)[O]C2C(O)OC(CO)C(O)C2[O]1 (stereo not drawn) | > 100 | > 100 | 24.2 | 93 | 14.4 | 28.6 | 7.16 | 23.8 | 12.8 | 40.5 | 86.8 | > 100 | > 100 | > 100 | > 100 | > 100 | 25.9 | > 100 | – | – |
| C=CC[Se]C(=O)c1ccccc1OC(C)=O | 1.2 | 2.54 | 1.95 | 4.57 | – | – | 2.22 | 5.71 | 2.9 | 8.43 | 3.08 | 11.6 | 0.717 | 2.48 | 1.6 | 4.4 | 1.83 | 6.24 | 1.36 | 2.88 |
| CCOC(=O)CC(=O)N(c1ccc(OC)cc1)C(C(=O)OC)c1ccccc1 (stereo not drawn) | – | – | – | > 100 | – | – | – | > 100 | – | – | – | > 100 | – | > 100 | – | > 100 | – | > 100 | – | – |
| COC(=O)C1C(=O)O[C@@H](c2ccc(OC)cc2)C1C(=O)OC (stereo partly drawn) | – | > 100 | – | > 100 | – | – | – | > 100 | – | > 100 | – | – | – | – | – | – | – | – | – | > 100 |
| O=[N+]([O-])c1ccc(Oc2cccnc2)c([N+](=O)[O-])c1 | 3.28 | 9.73 | 4.28 | 18.7 | 2.9 | 11.6 | 4.07 | 62.6 | 6.08 | 32.2 | 2.96 | 7.44 | 4.98 | 36.4 | – | – | 46 | > 100 | 6.53 | 41.7 |
| O=c1oc2c(Br)c(O)c(Br)cc2c2ccccc12 | – | – | – | 38.6 | – | 66.1 | – | 75.4 | – | 67.1 | – | 70.8 | – | 50.4 | – | 78.1 | – | 66.2 | – | 72.4 |
| CCCCC(SC(=S)N(CC)CC)C(=O)Nc1nc(CC(=O)OCC)cs1 (stereo not drawn) | 75.6 | > 100 | – | – | 47.8 | > 100 | 22 | 85.2 | 20.2 | > 100 | 98.3 | > 100 | 0.776 | > 100 | 42.9 | > 100 | 47.9 | > 100 | 59.3 | > 100 |
| COc1ccc(S(=O)(=O)Nc2cc(/C=C\c3cc(OC)c(OC)c(OC)c3)cc(OC)c2OC)cc1OC | 11.4 | > 100 | 3.31 | > 100 | 2.43 | > 100 | 0.567 | > 100 | 0.702 | > 100 | 0.841 | > 100 | 0.374 | > 100 | – | – | 3.42 | > 100 | 1.83 | > 100 |
| Nc1ccn(C2OC(CO[P+](=O)OC3C(CO[P+](=O)OC4C(CO[P+](=O)OC5C(CO[P+](=O)OC6C(CO[P+](=O)OC7C(CO[P+](=O)OC8C(CO[P+](=O)OC9C(CO[P+](=O)OC%10C(CO[P+](=O)OC%11C(CO)OC(n%12ccc(N)nc%12=O)C%11(F)F)OC(n%11ccc(N)nc%11=O)C%10(F)F)OC(n%10ccc(N)nc%10=O)C9(F)F)OC(n9ccc(N)nc9=O)C8(F)F)OC(n8ccc(N)nc8=O)C7(F)F)OC(n7ccc(N)nc7=O)C6(F)F)OC(n6ccc(N)nc6=O)C5(F)F)OC(n5ccc(N)nc5=O)C4(F)F)OC(n4ccc(N)nc4=O)C3(F)F)C(O)C2(F)F)c(=O)n1 (stereo not drawn) | 0.255 | > 100 | – | – | 0.522 | > 100 | – | – | – | – | 0.0239 | 0.13 | 80.5 | > 100 | – | > 100 | > 100 | – | 0.339 | > 100 |
| CC(=O)N(/N=C\c1ccc([N+](=O)[O-])cc1)c1ccccc1 | – | > 100 | – | > 100 | – | – | – | > 100 | – | – | – | – | – | – | – | – | – | – | – | > 100 |
| NC(Cc1cc(Br)c(O)c(Br)c1)C(=O)O (stereo not drawn) | – | > 100 | – | > 100 | – | > 100 | – | > 100 | – | > 100 | – | > 100 | – | > 100 | – | > 100 | – | > 100 | – | – |
| CC(=O)c1cc2c3c(c1)c1cc4c(cc1c(=O)n3CC2)OCO4 | – | > 100 | – | > 100 | – | – | – | > 100 | – | 9.92 | – | – | – | – | – | – | – | – | – | > 100 |
| [Ce+3].[Cl-].[O-]/N=C(\c1ccccc1)c1ccccn1.[O-]/N=C(\c1ccccc1)c1ccccn1.[O-]/N=C(\c1ccccc1)c1ccccn1 | 37.2 | > 100 | 59.8 | > 100 | – | – | 59.7 | > 100 | 27.7 | > 100 | – | – | – | – | – | – | – | – | 35.3 | > 100 |
| COC(=O)C1C2CC3C(OC(=O)C31)C2I (stereo not drawn) | – | > 100 | – | > 100 | – | – | – | > 100 | – | > 100 | – | – | – | – | – | – | – | – | – | > 100 |
| CC(C)Cc1ccc(C(C)/C=C2\CCC(CN3CCOCC3)C2=O)cc1 (stereo not drawn) | – | 32.8 | – | 29.4 | – | 4.2 | – | – | – | 11 | – | 26.6 | – | 25.4 | – | 29.3 | – | > 100 | – | 24.1 |
| COc1ccc(C2Cc3cc(OC)c(OC)c(OC)c3C2=O)cc1 (stereo not drawn) | – | > 100 | – | > 100 | – | – | – | > 100 | – | > 100 | – | – | – | – | – | – | – | – | – | > 100 |
| CCC[CH2][Sn]([CH2]CCC)([O]C(=O)c1cc(OC)c(OC)c(OC)c1)[O]C(=O)c1cc(OC)c(OC)c(OC)c1 | 1.69 | 3.25 | 0.437 | 1.56 | – | – | 0.445 | 4.5 | 0.505 | 4.11 | – | – | – | – | – | – | – | – | – | – |
| OCC1OC(n2ccc3cnccc32)CC1O (stereo not drawn) | – | > 100 | – | > 100 | – | – | – | > 100 | – | > 100 | – | – | – | – | – | – | – | – | – | > 100 |
| c1ccc2c(c1)nnn1c3cnccc3nc21 | – | > 100 | – | 69.4 | – | – | – | 58.8 | – | 54.9 | – | – | – | – | – | – | – | – | – | > 100 |
